Reference: US20120165403A1, “METHODS OF INHIBITING THE ACTIVITY OF HSP90 AND/OR ARYL HYDROCARBON RECEPTOR” (UNIVERSITY OF ROCHESTER, priority 2004, published 2012)

Assays:
mouse AhR = assay: Competitive binding by velocity sedimentation on sucrose density gradients; details: Hepa cytosol, 2 h, room temperature
Protocol: Mouse hepatoma cells, Hepa1c1c7 (Hepa), and BP^rCl cells were maintained in modified Eagle's medium (Sigma) supplemented with 10% heat-inactivated fetal bovine serum, sodium pyruvate, L-glutamine, sodium bicarbonate, and Gentamicin (MEM+), at 37° C. in a humid atmosphere with 5% CO2. BP^rCl cells are a derivative of Hepa1c1c7 cells that lack ARNT protein expression and function (Probst et al., Mol. Pharmacol. 44:511-518 (1993), which is hereby incorporated by reference in its entirety). Upon reaching 90% confluency, cells were harvested and homogenized in HEDG buffer (25 mM HEPES, 1.5 mM Na2EDTA, 1 mM dithiothreitol, 10% (v/v) glycerol, pH 7.6) containing protease inhibitors (Roche Applied Science complete mini cocktail tablet, Indianapolis, Ind.). Both Hepa and BP^rC1 cytosols were prepared by centrifugation of the homogenate at 100,000 g for 45 min.
(§1) Competitive binding of EGCG was analyzed by velocity sedimentation on sucrose gradients in a vertical tube rotor (Tsui et al., Can. J. Physiol. Pharmacol 59:927-931 (1981); Jensen et al., Toxicol. Sci. 64:41-56 (2001), which are hereby incorporated by reference in their entirety). Hepa cytosol (100 μl of 2.5 mg/ml) or BP^rCl cytosol was incubated for two hours at room temperature with either 3 nM ^3H-TCDD, 0.5 nM ^3H-TCDD, or 5 nM ^3H-BNF, in the presence of DMSO, 150-fold excess TCDF, 1 μM 3M4NF, or EGCG. Cytosols were washed with charcoal-dextran (1 mg charcoal/mg protein) in HEDG, and applied to a 10-30% (w/v) sucrose gradient in Beckman Quick-Seal centrifuge tubes (Beckman, Palo Alto, Calif.). [Methyl-^14C]-BSA was used as an internal sedimentation marker. The gradients were centrifuged for 2 h at 372,000×g in a Beckman VTI-80 rotor. Fractions were collected from the top at a rate of 1 ml/min, 0.2 ml/fraction. For competitive binding assays, fractions were assayed for radioactivity with ScintiVerse (Fisher Scientific, Fair Lawn, N.J.). […] For AhR and hsp90 density analysis, protein contained within an aliquot (200 of each fraction was separated by SDS-PAGE (7.5% acrylamide resolving gel) and transferred to PVDF membranes. Membranes were probed with antibodies recognizing AhR (Biomol) or hsp90 (Stressgen, Victoria, BC Canada). A crude estimate of the sedimentation coefficient for the EGCG shifted AhR complex was calculated by the method of Martin and Ames (Martin et al., J. Biol. Chem. 236:1372-1379 (1961), which is hereby incorporated by reference in its entirety) relative to the ^14C-BSA (4.4S) standard.

AhR [1] = assay: Immunocytochemistry of AhR subcellular localization in Hepa cells; type: cell-based, mouse; details: 1 h, EGCG 200 μM or TCDD 150 pM
Protocol: Hepa cells were plated onto four-well chamber slides (Becton Dickinson, Bedford, Mass.) at a density of 2.0×10^4 and incubated overnight. Cells were treated with either vehicle (DMSO), TCDD (150 pM), EGCG alone (200 μM), or EGCG in the presence of TCDD (150 pM) for 1 h. Cells were fixed with 3.7% formalin at room temperature for 10 minutes, followed by a four minute incubation in anhydrous methanol at 4° C. All antibodies were filtered through a 0.45 micron filter before staining Cells were blocked for one hour in phosphate buffered saline containing 4% BSA, incubated with anti-AhR at a 1:2000 dilution for two hours at room temperature, followed by a one hour incubation with 1:1000 anti-rabbit Alexa-Fluor conjugated secondary antibody (Molecular Probes, Eugene Oreg.). Nuclei were stained with DAPI (0.5 μg/ml) (Molecular Probes) for three minutes at room temperature. Slides were mounted with 50% glycerol and coverslipped. AhR staining and nuclear staining were visualized using a Nikon Eclipse TS110 fluorescent microscope (40× magnification). Fluorescent images were captured using SPOT advanced software.

AhR [2] = assay: AhR protein levels by western blotting in Hepa cells; type: cell-based, mouse; details: over 12 hours, EGCG 200 μM or TCDD 150 pM
Protocol: Hepa cells were plated onto 6-well plates at a density of 5×10^5 cells/well and incubated overnight at 37° C. […] Cells were lysed (0.2% Triton, 5 mM EDTA in PBS) and total protein quantified using the Coomassie Plus Protein Assay Reagent (Pierce, Rockford, Ill.). Protein (30 μg) was separated by SDS-PAGE (7.5% acrylamide resolving gel) and transferred to PVDF membrane (Millipore, Bedford, Mass.). Membranes were probed with antibodies recognizing CYP1A1 (Xenotech, Lenexa, Kans.), AhR (Biomol, Plymouth Meeting, Pa.) and actin (Sigma). The secondary IgG antibodies were coupled to horseradish peroxidase (Jackson Immuno Research, West Grove, Pa.). Both primary and secondary antibodies were used at a dilution of 1:5000 in TBST (50 mM Tris, 300 mM NaCl, 0.5% Tween 20, pH 7.5) containing 5% milk. Proteins were visualized by chemiluminescence (KPL, Gaithersburg, Md.).

hsp90 = assay: Sucrose density gradient sedimentation of hsp90 in Hepa cytosol; type: biochemical, mouse; details: 2 h, 200 μM EGCG or 10 nM TCDD
Protocol: as §1, with “Cytosols were washed with charcoal-dextran (1 mg charcoal/mg protein) in HEDG, and applied to a 10-30% (w/v) sucrose gradient in Beckman Quick-Seal centrifuge tubes (Beckman, Palo Alto, Calif.). [Methyl-^14C]-BSA was used as an internal sedimentation marker. The gradients were centrifuged for 2 h at 372,000×g in a Beckman VTI-80 rotor. Fractions were collected from the top at a rate of 1 ml/min, 0.2 ml/fraction.” left out

COc1cc(-c2cc(=O)c3ccccc3o2)ccc1[N+](=O)[O-] [3M4NF, 3′-methoxy-4′ nitroflavone, reference compound]
competition with 3H-TCDD for specific binding to the AhR (9S peak) (mouse AhR; 3 nM 3H-TCDD): inhibited the formation of this ^3H-TCDD peak

Clc1cc2c(cc1Cl)Oc1cc(Cl)c(Cl)cc1O2 [TCDD, 2,3,7,8-tetrachlorodibenzo-p-dioxin, reference compound]
subcellular localization of the AhR, treatment alone (AhR [1]): redistribution of the AhR from the cytosol to the nucleus | AhR protein levels, treatment alone (AhR [2]): decline rapidly | effect on the sedimentation pattern of hsp90 (hsp90): did not appear to influence this sedimentation pattern

O=c1cc(-c2cccc([N+](=O)[O-])c2)oc2ccccc12 [3′-nitroflavone, reference compound]
competition with 3H-BNF for binding to the AhR (mouse AhR; 5 nM 3H-BNF): very efficiently competed with BNF binding
